Data on 89 compounds can be found in a melting point compilation (Tetko et al.; mined from patent text by program, amines drawn as free bases though some values may be those of a salt).

SMILES strings stand for the structures. Bounds are passed on as bounds.

Compound `CN(C)C1(c2ccccc2)CCC(CC(=O)NCCCCc2c[nH]c3ccccc23)CC1` (centres undefined) registered a melting point of 186 °C.
In the case of `CN(C)C(=O)Cc1nc(-c2ccccc2)nc2c1c1ccc(Cl)cc1n2C` it was 185 to 187 °C.
Regarding `CC1(C)C(=O)N(c2ccc(C#N)c(C(F)(F)F)c2)C(=O)N1CC1OC1CN1C(=O)N(c2ccc(C#N)c(C(F)(F)F)c2)C(=O)C1(C)C` (centres undefined), the melting point was 108 to 110 °C.
As for `Cc1nc(N2CCN(CC3CC3(F)F)C2=O)sc1C(=O)NCc1cccnc1` (centres undefined), the melting point was 169 to 171 °C.
To `N#Cc1ccc2c(c1)CCC1CC(=O)NN=C21` (centres undefined) belongs 292 to 295 °C.
To `N#Cc1cccc(Br)c1CBr` belongs 90 to 93 °C; to `COc1cc(OCc2ccccn2)ccc1/C=C/C(=O)CC(=O)/C=C/c1ccc2cc[nH]c2c1`, 165 to 168 °C; to `ON=C(Cc1ccccc1)c1ccc(Cl)c(Cl)c1`, 81 to 82 °C.
`COc1ccc([N+](=O)[O-])c(OCC(N)=O)c1` displayed a melting point of 185 to 187 °C.
In the case of `CC1(C)Oc2ccc(Br)cc2C(n2ccccc2=O)=C1CN(O)C(N)=O`, the melting point was found to be 216 °C.
In the case of `Nc1ncccc1OCc1ccc(F)cc1F` it was 105 to 107 °C; in that of `C=C/C=C/CCOC(=O)c1cc(CBr)cc(CBr)c1`, 50 to 52 °C.
In the case of `CC(C)c1cccc(C(C)C)c1NC(=O)CC(=O)C(c1ccccc1)c1ccccc1` it was 153 to 155 °C; in that of `Cc1cc2c(cc1C)OCCC(C(=O)O)=C2`, 266 to 267 °C.
In turn, `C=CCn1c2ccc(OC)cc2c2c3c(c(-c4ccccc4Cl)cc21)C(=O)N(Cc1ccc(OC)cc1OC)C3=O` had a melting point of 171 to 173 °C.
In the case of `Cc1cc(OS(=O)(=O)C(F)(F)F)c2cccc(OCc3ccccc3)c2n1` it was 158 °C.
In turn, `Cc1ccc(C(=O)N(C)C)cc1-c1nc(N(C)CCCN(C)C)nc2c1CNC(=O)N2c1c(F)cccc1F` displayed a melting point of 114 to 118 °C.
As to `CC(O)COC1CCNCC1` (centres undefined), the melting point lay within 55 to 57 °C.
To `CC(C)(C)c1ccc(C(=O)Nc2cn3nc(NCc4ccncc4)ccc3n2)cc1` belongs 222 to 223 °C; to `COc1ccc(C(O)(c2ccc(OC)cc2)C2CCN(CCC3CN(C)C(=O)O3)CC2)cc1` (centres undefined), 145 to 147 °C; to `CC(C)N1C(=O)c2ccccc2N(S(C)(=O)=O)S1(=O)=O`, 156 to 158 °C.
`COCc1nc(C(C)(C)O)c(C(=O)O)n1Cc1ccc(-c2ccccc2-c2nnn[nH]2)cc1` registered a melting point of 187 °C.
The compound `NC(=S)c1cn(C2OC(CO)C(O)C2O)nn1` (centres undefined) came in with a melting point of 152 to 154 °C.
In the case of `CC(C)c1cccc2c1O[C@@H](C(C)C)C(=O)N2` it was 151 to 152 °C; in that of `CC1CCn2nc(S(=O)(=O)Nc3c(Cl)cccc3Cl)nc2N1` (centres undefined), 230 to 235 °C; in that of `CCc1nc2c3c(c(C(=O)N(C)C)c(-c4ccccc4)c2n1C)CCCO3`, 195 to 197 °C.
To `CCc1cc(OCc2ccc(-c3ccccc3-c3nnn(C(c4ccccc4)(c4ccccc4)c4ccccc4)n3)cc2)c2c(n1)CCCCC2` belongs 147 to 148 °C; to `COC(=O)Cc1cc(OC)ccc1C(C)=O`, 74 to 76 °C.
In the case of `C[C@H](NC(=O)OC(C)(C)C)C(=O)N[C@H]1CCNC1` it was 137 to 138 °C.
For `Clc1ccccc1N1CCN=C1C(Cn1ccnc1)c1ccccc1` (centres undefined), the melting point lay within 118 to 122 °C.
`C[C@H](N)C(=O)NC(C)(Cc1ccc(F)cc1)c1ccc(F)cc1` (some centres undefined) had a melting point of 134 to 135 °C.
In turn, `CCNC(=O)c1cnn(C)c1[Si](C)(C)C` had a melting point of 77 to 81 °C.
In turn, `COc1cc2c(cc1N1CCN(C)CC1)N(C(=O)c1ccc(-c3ccc(-c4noc(C)n4)cc3C)cc1)CC2` yielded a melting point of 213 to 214 °C.
In the case of `O=C(OCc1ccc(C(F)(F)F)cc1)N1CCN(CC2Cn3cc([N+](=O)[O-])nc3O2)CC1` (centres undefined), the melting point fell in the range of 120 to 122 °C.
With `COc1cc2c(c(Cl)c1Cl)C(=O)C(c1ccc(Br)cc1)C2` (centres undefined), the melting point is 202 to 203 °C.
`CN(C)Cc1nc(CO)nn1-c1ccc(Cl)cc1C(=O)c1ccccc1`: the melting point fell in the range of 198 to 200 °C.
In the case of `CC(C)(C)CCN(CCC(C)(C)C)[C@@H](CC(=O)O)C(=O)O` it was 197 to 198 °C; in that of `CC(O)Cn1nc2c3c(cc(O)cc31)CCC2` (centres undefined), 153 to 155 °C; in that of `CSc1ccc(C(=O)c2c(C)c(C(=O)O)c3n2CCC3C(=O)O)n1C` (centres undefined), 212 to 213 °C.
To `CC(C)C#CC1(C(F)(F)F)OCC(=O)Nc2ccc(F)c(F)c21` (centres undefined) belongs 192 to 194 °C.
In the case of `N#Cc1c(N2CCCN(c3ccc(F)c(F)c3)CC2)cc[nH]c1=S` it was 250 to 251 °C.
With `Cc1ccccc1C(=O)Nc1ccc(C(=O)N2Cc3ccccc3C(=O)c3ccccc32)cc1`, the melting point fell in the range of 115 to 119 °C.
To `CCc1cc2c(c(Sc3ccccc3)cc(=O)n2Cc2ccc(-c3ccccc3-c3nnn(C(c4ccccc4)(c4ccccc4)c4ccccc4)n3)cc2)c(CC)n1` belongs 156 to 158 °C; to `O=C(OCC1CC1)c1ncn2c1[C@@H]1CCCN1C(=O)c1ccccc1-2`, 189 to 190 °C.
As for `CC(C)(C)OC(=O)NCCCBr`, the melting point was found to be 40 °C.
In the case of `O=C(O)Cc1nc(-c2ccc(Cl)cc2)sc1Sc1ccccc1` it was 191 to 193 °C.
To `Cc1nccc2c1[nH]c1cc(O)ccc12` belongs 248 °C; to `CCCCOC(=O)c1ccc(N2CCN(CC=Cc3ccc(Cl)cc3)CC2)cc1`, 115 to 117 °C.
To `CC(=O)NCC1CN(c2ccc(NC=O)c(F)c2)C(=O)O1` (centres undefined) belongs 196 to 198 °C; to `Cc1nc2nc(NCCN3CCC(Nc4nc5ccccc5n4Cc4ccc(F)cc4)CC3)ccc2[nH]1`, 202 °C; to `CC(C)(C)NNC(=S)c1ccccc1`, 165 to 168 °C.
On to `O=C(/C=C/C=C(c1ccc(Cl)cc1)c1ccc(Cl)cc1)NCCCCc1cccnc1`, for which the melting point lay in the range of 146 to 147 °C.
In the case of `CC(C)(C)c1cc(-c2nc(Cl)nc(Cl)n2)cc(C(C)(C)C)c1O` it was 178 to 179 °C.
To `Cc1[nH]n(C2CCCC2)c2nc(-c3cccc4cccnc34)nc(=O)c1-2` belongs 242 to 244 °C; to `COC(CC1OCC(Br)([N+](=O)[O-])CO1)OC` (centres undefined), 95 to 97 °C.
In turn, `CNc1c(C(=O)OC)c(C)nc2c1c1ccccc1n2C` had a melting point of 90 to 91 °C.
`N/C(=C1/Sc2ccccc2C1=O)c1ccccc1N` came in with a melting point of 186 to 187 °C.
For `C=CCOc1ccc2c(c1)CCC(=O)N2`, the melting point fell in the range of 123 to 125 °C.
In the case of `CC(C)c1nc(C2CCCCC2)cc(-c2ccc(F)cc2)c1C=O` it was 59 to 61 °C; in that of `O=C(Cc1ccccc1)c1ccc(OCc2ccccc2)cc1O`, 106 to 108 °C.
In the case of `COC(=O)c1sc(-c2ccc(C)cc2)cc1NC(C)=O` it was 127 to 129 °C.
Turning to `N=C(N)NN=Cc1cccc(Cl)c1I`, the melting point fell in the range of 231 to 232 °C.
In the case of `O=[N+]([O-])c1ccc(N(CCBr)S(=O)(=O)c2ccccc2)cc1` it was 168 °C.
To `O=[N+]([O-])c1cc(Cl)c(I)c(Cl)c1` belongs 147 to 150 °C.
The compound `N#Cc1cnc2cc(/C=C/CN3CCOCC3)ccc2c1Nc1ccc(Cl)cc1Cl` gave a melting point of 175 to 176 °C.
To `O=c1ccc(S(=O)(=O)c2oc3ccccc3c2-c2ccccc2)n[nH]1` belongs greater than 220 °C; to `O=C(CCCc1ccccc1)N[C@@H](Cc1ccccc1)C(=O)O`, 178 °C.
In the case of `O=[N+]([O-])c1cc(-c2ccco2)ccc1Nc1cccc(-n2ccnc2)c1` it was 147 to 149 °C; in that of `CCOC(=O)c1c(C)cc2nc(CSC(C)=O)n(-c3ccccc3Cl)c(=O)c2c1C`, 103 to 105 °C; in that of `COc1ncc(-c2cc(N3CCOCC3)nc(-n3c(C(F)F)nc4c(OC)cccc43)n2)cn1`, 238 to 241 °C.
In the case of `CCc1ccc(C#CC(C)N(O)C(N)=O)cc1` (centres undefined) it was 142 to 144 °C.
In turn, `Cc1cccc(N2CCN(CCCOc3ccc4ccc(=O)oc4c3)CC2)c1C` returned a melting point of 89 °C.
The compound `CC1(C)CCCC2(C)C3CC=C(C=O)CC(=O)C3CCC12` (centres undefined) gave a melting point of 87 to 88 °C.
To `N#Cc1ccc(-c2cnc(-c3ccc(C#N)cc3)cn2)cc1` belongs greater than 300 °C.
In the case of `CC(=O)NNc1ccc(NCc2ccccc2)cc1` it was 118 to 120 °C.
`CCNS(=O)(=O)c1cccc(NC(=O)c2cnn3c(C(F)F)cc(-c4ccc(C(F)(F)F)c(OCC)c4)nc23)c1`: the melting point was found to be 222 °C.
With `COc1cc2c(cc1OC)CN(c1nc(N)nc(Cl)n1)CC2`, the melting point is 196 to 197 °C.
In the case of `CCCCCCN(C)c1ccc(C=C2SC(=S)N(CC(=O)NS(=O)(=O)C(F)(F)F)C2=O)cc1` it was 94 to 97 °C; in that of `CCOCc1nc2c(N)nc3cc(Br)ccc3c2n1CC1CCN(C(=O)N2CCOCC2)CC1`, 198 to 199 °C; in that of `CC(=O)N1C(=O)C(C(=O)c2cccs2)c2cc(Cl)ccc21` (centres undefined), 168 to 170 °C.
Compound `CCOC(=O)C=C(c1ccccc1)c1cc([N+](=O)[O-])ccc1NS(=O)(=O)c1ccc(OC)cc1` returned a melting point of 126 to 129 °C.
Turning to `CC1CC(C)(C)Nc2ccc3c(c21)C(c1ccc(Cl)cc1)Oc1ccccc1-3` (centres undefined), the melting point was in the range of 158 to 159 °C.
To `CN1CC=C(C(=O)N2c3ccccc3C(=O)Nc3cccc(Cl)c32)CC1` belongs 296 °C.
`CC(=O)N1CCC(=O)C(C(c2ccc(C)cc2)c2ccc(C)cc2)C1` (centres undefined) gave a melting point of 142 to 144 °C.
`CC1(C)OC(=O)C(=C(Nc2ccccc2Br)N2CCOCC2)C(=O)O1` showed a melting point of 212 to 213 °C.
In the case of `O=C(O)CCCCNC(=O)CCCCC1CCSS1` (centres undefined) it was 98 to 100 °C; in that of `COc1ccc(Cn2nnnc2C(O)c2ccccc2C)cc1` (racemic), 90 to 92 °C.
As to `COc1ccc(C=O)c(Br)c1O`, the melting point lay in the range of 80 to 81.5 °C.
In the case of `COc1cc2nc(NC3CCC(N(C)C)CC3)c(-c3ccccn3)nc2cc1OC` (centres undefined) it was 168 to 171 °C.
